From patent EP0533925A1, “OPTICAL ISOMER OF R-FORM OF DIPHENYL ETHER DERIVATIVE AND HERBICIDE CONTAINING THE SAME AS ACTIVE INGREDIENT” (TEIJIN LIMITED, priority 1990, dated 1991)

Tests used:
Experiment in all cases: Herbicidal activity, foliar application of single compounds (Test Examples 1 to 5)
Type in all cases: in vivo
Set-up in all cases: key: 0 means the state where the plants are as sound as before the application of the active compound; 1, 2, 3 and 4 mean varying degrees of the enfeebled state of the plants between 0 and 5; 1, 2, 3 and 4 mean varying degrees of the enfeebled state of the plants between 0 and 5; 1, 2, 3 and 4 mean varying degrees of the enfeebled state of the plants between 0 and 5; 1, 2, 3 and 4 mean varying degrees of the enfeebled state of the plants between 0 and 5; 5 is the state where the plants are withered or killed by application of the active compound
Conditions in all cases: 3 weeks after application
Sorghum halepense = system: Sorghum halepense
Method: (§1) In these examples, all parts means parts by weight, unless otherwise noted. The herbicidal activity was evaluated on a scale of 6 degrees. In other words, 0 means the state where the plants are as sound as before the application of the active compound, while 5 is the state where the plants are withered or killed by application of the active compound, and 1, 2, 3 and 4 mean varying degrees of the enfeebled state of the plants between 0 and 5.
(§2) The diphenyl ethers shown in Table 2 were added to 5000 parts of a mixture of acetone and water (1 : 1 by volume), and 2.6 parts of a nonionic surfactant (Sorpol 2680, tradename) was added to form a solution, so that the ether becomes the prescribed amount in each solution.
(§3) Seeds of plants were sown in the soil, cultivated for 2 to 3 weeks, after germination, then the plants were used for the tests.
(§4) The prepared solution was applied to these plants at the prescribed rate of application in total, then the plants were continuously cultivated for 3 weeks without applying the solution.
(§5) The alphabetical symbols in Tables 2 and 3 represent the following plants, respectively: a: Digitaria adscendens b: Setaria viridis c: Sorghum halepense d: Chenopodium album var. centrorubrum e: Amaranthus mangostanus f: Astragalus sinicus g: Abutilon theophrosti h: Solanum nigrum i: Xanthium strumarium j: Soybean; Glycine max k: Corn; Zea mays Table 2

Xanthium strumarium = system: Xanthium strumarium
Method: as §1, §2, §3, §4, §5

Solanum nigrum = system: Solanum nigrum
Method: as §1, §2, §3, §4, §5

Setaria viridis = system: Setaria viridis
Method: as §1, §2, §3, §4, §5

Astragalus sinicus = system: Astragalus sinicus
Method: as §1, §2, §3, §4, §5

Amaranthus mangostanus = system: Amaranthus mangostanus
Method: as §1, §2, §3, §4, §5

Abutilon theophrosti = system: Abutilon theophrosti
Method: as §1, §2, §3, §4, §5

Corn; Zea mays = system: Corn; Zea mays
Method: as §1, §2, §3, §4, §5

Soybean; Glycine max = system: Soybean; Glycine max
Method: as §1, §2, §3, §4, §5

Digitaria adscendens = system: Digitaria adscendens
Method: as §1, §2, §3, §4, §5

[1] = system: Chenopodium album var. centrorubrum
Method: as §1, §2, §3, §4, §5

[2] = Rate of Application 0.016 kg/ha
[3] = Rate of Application 0.031 kg/ha
[4] = Rate of Application 0.008 kg/ha

| Compound | herbicidal activity, Plants c (Sorghum halepense; [3]) | herbicidal activity, Plants i (Xanthium strumarium; [3]) | herbicidal activity, Plants h (Solanum nigrum; [3]) | herbicidal activity, Plants b (Setaria viridis; [3]) | herbicidal activity, Plants f (Astragalus sinicus; [3]) | herbicidal activity, Plants e (Amaranthus mangostanus; [3]) | herbicidal activity, Plants g (Abutilon theophrosti; [3]) | herbicidal activity, Plants k (Corn; Zea mays; [3]) | herbicidal activity, Plants j (Soybean; Glycine max; [3]) | herbicidal activity, Plants a (Digitaria adscendens; [3]) | herbicidal activity, Plants d [1, 3] | herbicidal activity, Plants c (Sorghum halepense; [4]) | herbicidal activity, Plants i (Xanthium strumarium; [4]) | herbicidal activity, Plants h (Solanum nigrum; [4]) | herbicidal activity, Plants b (Setaria viridis; [4]) | herbicidal activity, Plants f (Astragalus sinicus; [4]) | herbicidal activity, Plants e (Amaranthus mangostanus; [4]) | herbicidal activity, Plants g (Abutilon theophrosti; [4]) | herbicidal activity, Plants k (Corn; Zea mays; [4]) | herbicidal activity, Plants j (Soybean; Glycine max; [4]) | other results |
| --- | --- | --- | --- | --- | --- | --- | --- | --- | --- | --- | --- | --- | --- | --- | --- | --- | --- | --- | --- | --- | --- |
| COC(=O)C(C)Oc1cc(Oc2ccc(C(F)(F)F)cc2Cl)ccc1C#N (racemic) [Racemic (1), racemic methyl α-[2-cyano-5-(2-chloro-4-trifluoromethylphenoxy)phenoxy]propionate, reference compound] | 5 | 5 | 5 | 3 | 5 | 5 | 5 | 5 | 4 | 4 | 5 | – | – | – | – | – | – | – | – | – | herbicidal activity, Plants c (Sorghum halepense; [2]): 2; herbicidal activity, Plants i (Xanthium strumarium; [2]): 5; herbicidal activity, Plants h (Solanum nigrum; [2]): 5; herbicidal activity, Plants b (Setaria viridis; [2]): 2; herbicidal activity, Plants f (Astragalus sinicus; [2]): 5; herbicidal activity, Plants e (Amaranthus mangostanus; [2]): 5; herbicidal activity, Plants g (Abutilon theophrosti; [2]): 5; herbicidal activity, Plants k (Corn; Zea mays; [2]): 4; herbicidal activity, Plants j (Soybean; Glycine max; [2]): 4; herbicidal activity, Plants a (Digitaria adscendens; [2]): 3; herbicidal activity, Plants d [1, 2]: 5 |
| CCOC(=O)C(C)Oc1cc(Oc2ccc(C(F)(F)F)cc2Cl)ccc1C#N (stereo not drawn) [(2), ethyl α-[2-cyano-5-(2-chloro-4-trifluoromethylphenoxy)phenoxy]propionate] | 5 | 5 | 5 | 4 | 5 | 5 | 5 | 5 | 5 | 4 | 5 | 3 | 5 | 5 | 3 | 4 | 3 | 5 | 4 | 4 | herbicidal activity, Plants a (Digitaria adscendens; [4]): 3; herbicidal activity, Plants d [1, 4]: 5 |
| CCCCOC(=O)C(C)Oc1cc(Oc2ccc(C(F)(F)F)cc2Cl)ccc1C#N (stereo not drawn) [(3), n-Butyl α-[2-cyano-5-(2-chloro-4-trifluoromethylphenoxy)phenoxy]propionate] | 5 | 5 | 5 | 4 | 5 | 5 | 5 | 5 | 5 | 5 | 5 | 2 | 4 | 5 | 3 | 4 | 5 | 5 | 2 | 3 | herbicidal activity, Plants a (Digitaria adscendens; [4]): 3; herbicidal activity, Plants d [1, 4]: 5 |
| CCOC(=O)C(C)Oc1cc(Oc2ncc(C(F)(F)F)cc2Cl)ccc1C#N (stereo not drawn) [(37), Ethyl α-[2-cyano-5-(3-chloro-5-trifluoromethyl-2-pyridyloxy)phenoxy]propionate] | 5 | 5 | 4 | 4 | 4 | 5 | 5 | 3 | 4 | 4 | 5 | 3 | 4 | 4 | 3 | 3 | 5 | 5 | 2 | 3 | herbicidal activity, Plants a (Digitaria adscendens; [4]): 3; herbicidal activity, Plants d [1, 4]: 3 |
| COC(=O)[C@H](C)Oc1cc(Oc2ccc(C(F)(F)F)cc2Cl)ccc1C#N [S-enantiomer (1), S-enantiomer of methyl α-[2-cyano-5-(2-chloro-4-trifluoromethylphenoxy)phenoxy]propionate, reference compound] | 1 | 0 | 2 | 0 | 1 | 0 | 1 | 0 | 1 | 1 | 1 | – | – | – | – | – | – | – | – | – | – |
